Experimental data published in patent publication US20240253023A1, “PERFLUORINATED AMIDE SALTS AND THEIR USES AS IONIC CONDUCTING MATERIALS” (priority 1996, published 2024).
Counter-ions that a name gives are not always drawn.

Columns and labels:
[1] = solubility in organic solvents and polymers; conditions: for solubility in organic solvents: organic solvents (tetrahydrofurane, acetonitrile, dimethylformamide, ethyl acetate, glymes ...), mostly also in aprotic solvating or polar polymers
[2] = ionic conductivity of salts and polyelectrolytes in polymer, liquid, gel or molten media; assay type: physicochemical
[3] = oxidation potential towards a lithium anode; assay type: physicochemical
[4] = cationic transport number of electrolytes; assay type: physicochemical; conditions: in poly (ethylene oxide)
[5] = reversible redox potential in poly (ethylene oxide) on a platinum electrode, towards a lithium electrode; assay type: physicochemical; conditions: platinum electrode 125 μm
Description: These salts have a reversible redox couple. In poly (ethylene oxide) a reversible potential≈3.4 V towards a lithium electrode was determined on a platinum electrode having a diameter of 125 μm.
This salt has two reversible redox couples. In poly (ethylene oxide), on a platinum electrode of a diameter of 125 μm, it was shown that there is a first redox couple having a potential≈3.2 V and a second redox couple having a potential≈3.8 V, these potentials being measured towards a lithium electrode.

[6] = acid form; cited from earlier work
[7] = in poly (ethylene oxide), O/Li 12/1, 60° C.

Question: Which “solubility in low polar solvents” value ([1]; dichloromethane or methylene chloride, polymer matrices with low polarity such as methyl polymethacrylate) does the source give for `CCCCC(CC)CN(CC(CC)CCCC)S(=O)(=O)[N-]S(=O)(=O)C(F)(F)F.CCN1C(=CC=CC=CC=Cc2sc3ccccc3[n+]2CC)Sc2ccccc21` [3,3′-diethylthiatricarbocyanine of di-2-ethylhexylaminosulfonyl(trifluoro-methanesulfonyl)imide] here?
Answer: very soluble in low polar solvents

Question: Which conductivity ([2]; in poly (ethylene oxide), O/K=12/1, 60° C.) does the source give for `CN(C)S(=O)(=O)[N-]S(=O)(=O)C(F)(F)F.[K+]` [potassium salt of trifluoromethanesulfonyl-(dimethylaminosulfonyl)irnide] here?
Answer: 5.10^−4 S·cm^−1

Question: Which oxidation potential ([3]; 0.5 M in acetonitrile) does the source give for `O=S(=O)([N-]S(=O)(=O)C(F)(F)F)c1nnc(C(F)(F)F)s1.[Li+]` [Example 35, lithium salt of trifluoromethanesulfonyl(5-trifluoromethyl-1,3,4-thiadiazole-5-sulfonyl)imide] here?
Answer: higher than 4.5 V

Question: What about the “solubility in organic solvents” value [1] of the same compound?
Answer: soluble in most usual organic solvents

Question: Which results are given for `CCCN(CCC)S(=O)(=O)[N-]S(=O)(=O)C(F)(F)F.[Li+]` [lithium salt of trifluoromethanesulfonyl(dipropylaminosulfonyl)-imide]?
Answer: conductivity ([2]; in poly (ethylene oxide), O/Li=12/1, temperature not stated): 1.4×10^−4 S·cm^−1; cationic transport number ([4]; O/Li=12/1): 0.42

Question: For `O=S(=O)(CCc1c2ccccc2cc2ccccc12)[N-]S(=O)(=O)C(F)(F)F.[K+]` [Example 56, potassium salt of trifluoromethanesulfonyl(anthracenyl-9-ethanesulfonyl)imide], which “solubility in organic solvents” value [1] is on record?
Answer: soluble in most usual organic solvents

Question: For “potassium salt of N,N′,N″,N′″-perfluorobutanesulfonyl-Nickel(II) phtalocyaninetetrasulfonamide [Example 57]”, which “solubility in organic solvents” value [1] is on record?
Answer: soluble in most usual organic solvents

Question: For `O=S(=O)(CC(F)(F)F)[N-]S(=O)(=O)C(F)(F)F.[Li+]` [Example 9, lithium salt of trifluoromethanesulfonyl(2,2,2-trifluoroethane-sulfonyl) imide], which conductivity [2, 7] is on record?
Answer: 2.3×10^−4 S·cm^−1

Question: With `CN(C)S(=O)(=O)[N-]S(=O)(=O)C(F)(F)F.CN(C)S(=O)(=O)[N-]S(=O)(=O)C(F)(F)F.CN(C)S(=O)(=O)[N-]S(=O)(=O)C(F)(F)F.[La+3]` [Example 30, lanthanum salt of trifluoromethanesulfonyl(dimethylaminosulfonyl)-imide] as the compound, how does the “solubility in organic solvents” value [1] read?
Answer: highly soluble in the usual organic solvents

Question: Which oxidation potential ([3]; 1 M in ethylene carbonate and dimethylcarbonate (2:1)) does the source give for `O=S(=O)(Nc1nnc(C(F)(F)F)s1)C(F)(F)F` [Example 34, trifluoromethanesulfonyl(5-trifluoromethyl-1,3,4 thiadiazole)amide] here?
Answer: higher than 4 V

Question: And the “solubility in organic solvents” value [1]?
Answer: soluble in most usual organic solvents

Question: For `CCN(CC)S(=O)(=O)[N-]S(=O)(=O)C(F)(F)F.CCN(CC)S(=O)(=O)[N-]S(=O)(=O)C(F)(F)F.CCN(CC)S(=O)(=O)[N-]S(=O)(=O)C(F)(F)F.[Yb+3]` [Yb(DETFSI)3, ytterbium salt of diethylaminosulfonyl(trifluoromethanesulfonyl)imide], which solubility in dichloromethane ([1]; dichloromethane) is on record?
Answer: good solubility in dichloromethane

Question: For `O=S(=O)(NS(=O)(=O)C(F)(F)F)OC(C(F)(F)F)C(F)(F)F` [Example 37 molten salt, trifluoromethanesulfonyl(1,1,1,3,3,3-hexafluoro-2-propanoxysulfonyl)imide 1-ethyl-3-methyl-1H-imidazolium], which conductivity ([2]; neat molten salt, temperature not stated) is on record?
Answer: 3.91×10^−3 S·cm^−1

Question: With `CN(C)S(=O)(=O)[N-]S(=O)(=O)C(F)(F)F.[Li+]` [lithium salt of trifluoromethanesulfonyl-(dimethylaminosulfonyl)imide] as the compound, how does the conductivity [2, 7] read?
Answer: 1.2×10^−4 S·cm^−1

Question: With “N-trifluoromethanesulfonyl-2-aminoacridine tetraethylammonium [Example 54]” as the compound, how does the “solubility in organic solvents” value [1] read?
Answer: soluble in most usual organic solvents

Question: For “di-lithium salt of 9-10-(propylsulfonamide-N-trifluoromethanesulfonyl)phenazine [Example 61]”, which “potential of first redox couple” value [5] is on record?
Answer: ≈ 3.2 V

Question: And the “potential of second redox couple” value [5]?
Answer: ≈ 3.8 V

Question: With `CN(C)c1cccc2c(S(=O)(=O)[N-]S(=O)(=O)C(F)(F)F)cccc12.[K+]` [Example 53, potassium trifluoromethane-sulfonyl(5-dimethylamino-1-naphthalenesulfonyl)imide] as the compound, how does the “solubility in organic solvents” value [1] read?
Answer: soluble in most polar organic solvents

Question: Which cationic transport number ([4]; O/Li=16/1) does the source give for `CCCCCCCCCCCCS(=O)(=O)[N-]S(=O)(=O)C(F)(F)F.[Li+]` [lithium salt of trifluoromethanesulfonyl(dodecylsulfonyl)imide] here?
Answer: about 0.55

Question: With `O=S(=O)(NS(=O)(=O)C(F)(F)F)C(F)(F)F` [H[CF3SO2—N—SO2CF3]] as the compound, how does the pKa [6] read?
Answer: 1.95
